Among the data in patent US20260325533A1, “CDK INHIBITOR COMPOUNDS” (ALEKSIA THERAPEUTICS, INC., priority 2023, published 2026) are IC50 values, retold here.

What all share (assay type): biochemical
One assay concerns the target CDK6/CCND1 (Homo sapiens, UniProt Q00534). Briefly: CDK6 homogeneous time-resolved fluorescence (HTRF) kinase assay. The note with it: CDK6/CCND, 1 mM ATP. The procedure, abridged: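 1 nM enzyme, 1 mM ATP, 50 nM ULight-4E-BP1 (Thr37/46) peptide, 1% DMSO; 20 min compound preincubation, 60 min reaction, 23 °C. EDTA stop, 2 nM Eu-anti-phospho-4E-BP1 antibody 60 min. TR-FRET 665 nm (or 665/615 ratio); IC50 from 11-point half-log titration, top 10 μM.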
In general terms: Time-resolved FRET reads energy transfer from a long-lived donor to a nearby acceptor.

Another assay addresses CDK4/CCND3 (Homo sapiens, UniProt P11802). Briefly: CDK4 homogeneous time-resolved fluorescence (HTRF) kinase assay. The following applies: CDK4/CCND. The procedure, abridged: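 Compounds were preincubated with 1.5 nM CDK4/CCND3 for 20 min at 23 °C in HEPES buffer (pH not given), then reacted 60 min with 1 mM ATP and 50 nM ULight-4E-BP1 (Thr37/46) peptide. EDTA stop, Eu-anti-phospho-4E-BP1 detection; 665/615 nm ratio; IC50 from 11-point half-log titrations from 10 μM.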

The target of another assay is CDK2/CCNE1 (Homo sapiens, UniProt P24941). Briefly: CDK2 homogeneous time-resolved fluorescence (HTRF) kinase assay. The note with it: CDK2/CCNE. In outline:
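3 nM CDK2/CCNE1 was preincubated with compound for 20 min at 23 °C in HEPES buffer (pH not stated), then reacted 60 min with 1 mM ATP and 50 nM ULight-4E-BP1 (Thr37/46) peptide. After EDTA stop, Eu-anti-phospho-4E-BP1 antibody (2 nM) was added for 60 min and TR-FRET read at 665 nm.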

The target of the next assay is CDK1/CCNB1 (Homo sapiens, UniProt P06493). The assay can be described thus: CDK1 homogeneous time-resolved fluorescence (HTRF) kinase assay. The note with it: CDK1/CCNB. The procedure, abridged:
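HTRF assay with 0.5 nM CDK1/CCNB1, 1 mM ATP, 50 nM ULight-eIF4E-BP1 (Thr37/46) peptide; compound preincubated 20 min, reaction 60 min at 23 °C, EDTA stop, Eu-anti-phospho antibody detection. 11-point half-log titration from 10 μM, 1% DMSO; IC50 from 665 nm or 665/615 signal.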

The mark [1] stands for this setting: >250 nM, read-out: CDK6/CCND IC50, >250 nM.
The mark [2] stands for this setting: >250 nM, read-out: CDK4/CCND IC50, >250 nM.
Setting [3] is: 25-250 nM, read-out: CDK2/CCNE IC50, 25-250 nM.
The mark [4] stands for this setting: >250 nM, read-out: CDK1/CCNB IC50 >250 nM.
Where [5] appears, read: <25 nM, read-out: CDK2/CCNE IC50, <25 nM.
The mark [6] stands for this setting: 25-250 nM, read-out: CDK6/CCND IC50, 25-250 nM.
Where [7] appears, read: 25-250 nM, read-out: CDK1/CCNB IC50, 25-250 nM.

Like-named read-outs stand apart in the source and are kept apart here. Bounds are passed on as bounds.

Sequence of CDK4/CCND3 (P11802 whole entry): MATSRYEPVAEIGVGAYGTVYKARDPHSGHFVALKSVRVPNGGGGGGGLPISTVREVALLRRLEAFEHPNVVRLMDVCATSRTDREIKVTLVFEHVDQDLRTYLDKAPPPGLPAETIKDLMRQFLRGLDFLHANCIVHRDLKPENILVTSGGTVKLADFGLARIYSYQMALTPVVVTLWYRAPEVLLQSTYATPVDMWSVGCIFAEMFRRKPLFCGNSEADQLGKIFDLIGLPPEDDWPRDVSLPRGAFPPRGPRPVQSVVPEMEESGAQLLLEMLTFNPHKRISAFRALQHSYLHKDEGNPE
Sequence of CDK4/CCND3 (P30281 whole entry partner): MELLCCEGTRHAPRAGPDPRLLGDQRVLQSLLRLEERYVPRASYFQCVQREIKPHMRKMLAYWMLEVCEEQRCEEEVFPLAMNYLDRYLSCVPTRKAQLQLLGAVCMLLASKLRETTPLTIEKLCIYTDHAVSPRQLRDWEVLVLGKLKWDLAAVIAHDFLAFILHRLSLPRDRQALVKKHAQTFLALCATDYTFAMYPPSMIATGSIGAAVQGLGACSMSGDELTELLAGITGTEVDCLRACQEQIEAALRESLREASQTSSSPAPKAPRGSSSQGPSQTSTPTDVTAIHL
Sequence of CDK6/CCND1 (Q00534 whole entry): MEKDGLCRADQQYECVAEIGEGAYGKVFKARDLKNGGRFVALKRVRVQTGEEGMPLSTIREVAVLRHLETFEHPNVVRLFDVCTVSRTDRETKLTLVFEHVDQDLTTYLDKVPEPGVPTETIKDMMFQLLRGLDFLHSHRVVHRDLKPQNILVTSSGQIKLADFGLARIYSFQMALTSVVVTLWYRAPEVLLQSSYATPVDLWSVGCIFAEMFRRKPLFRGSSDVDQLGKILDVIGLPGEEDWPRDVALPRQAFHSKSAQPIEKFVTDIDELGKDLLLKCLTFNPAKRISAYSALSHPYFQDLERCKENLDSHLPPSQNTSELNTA
Sequence of CDK6/CCND1 (P24385 whole entry partner): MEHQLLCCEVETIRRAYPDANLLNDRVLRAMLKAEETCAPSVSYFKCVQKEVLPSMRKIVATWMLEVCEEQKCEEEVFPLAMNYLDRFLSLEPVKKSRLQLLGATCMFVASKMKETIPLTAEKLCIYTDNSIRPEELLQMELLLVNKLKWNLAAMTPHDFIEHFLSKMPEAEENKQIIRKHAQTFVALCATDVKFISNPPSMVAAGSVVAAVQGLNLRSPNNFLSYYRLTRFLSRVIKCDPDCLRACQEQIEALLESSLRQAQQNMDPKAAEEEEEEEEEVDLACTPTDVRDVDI
Sequence of CDK1/CCNB1 (P06493 whole entry): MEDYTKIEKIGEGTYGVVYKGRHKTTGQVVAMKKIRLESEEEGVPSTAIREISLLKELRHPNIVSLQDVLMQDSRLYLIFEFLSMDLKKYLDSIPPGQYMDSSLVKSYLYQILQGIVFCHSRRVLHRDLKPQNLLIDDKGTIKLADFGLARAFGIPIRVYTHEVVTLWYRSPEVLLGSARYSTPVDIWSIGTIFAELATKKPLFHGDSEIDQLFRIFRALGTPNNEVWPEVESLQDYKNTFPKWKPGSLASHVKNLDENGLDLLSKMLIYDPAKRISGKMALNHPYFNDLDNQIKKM
Sequence of CDK1/CCNB1 (P14635 whole entry partner): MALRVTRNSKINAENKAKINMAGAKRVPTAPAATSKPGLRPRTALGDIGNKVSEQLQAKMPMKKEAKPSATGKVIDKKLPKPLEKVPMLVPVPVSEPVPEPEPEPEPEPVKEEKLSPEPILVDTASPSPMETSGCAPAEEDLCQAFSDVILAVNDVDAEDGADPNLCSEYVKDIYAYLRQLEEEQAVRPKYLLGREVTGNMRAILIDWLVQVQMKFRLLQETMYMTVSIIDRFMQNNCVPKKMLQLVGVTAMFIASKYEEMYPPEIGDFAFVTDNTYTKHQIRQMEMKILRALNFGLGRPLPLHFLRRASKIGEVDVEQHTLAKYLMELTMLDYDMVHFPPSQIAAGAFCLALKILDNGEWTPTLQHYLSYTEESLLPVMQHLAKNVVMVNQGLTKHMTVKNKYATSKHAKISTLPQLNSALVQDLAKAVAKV

With `Cc1c(-c2nccc3cnc(Nc4ccc(S(=O)(=O)Nc5cccc(C(F)(F)F)n5)cc4)cc23)ccc2c1cnn2CC(O)(C(F)(F)F)C(F)(F)F` [Ex 720, 4-((5-(4-methyl-1-(3,3,3-trifluoro-2-hydroxy-2-(trifluoromethyl)propyl)-1H-indazol-5-yl)-2,6-naphthyridin-3-yl)amino)-N-(6-(trifluoromethyl)pyridin-2-yl)benzenesulfonamide], the IC50 on CDK6/CCND1 (setting [1]) is over 250 nM; on CDK4/CCND3 (setting [2]) it was over 250 nM; on CDK2/CCNE1 (setting [3]) it was 25 to 250 nM; at CDK1/CCNB1 (setting [4]), over 250 nM.

Take `CC[C@H](C)NS(=O)(=O)c1ccc(Nc2cc3c(-c4ccc5c(cnn5CC(C)(C)O)c4C)nccc3cn2)cc1` [Ex 722, (S)-N-(sec-butyl)-4-((5-(1-(2-hydroxy-2-methylpropyl)-4-methyl-1H-indazol-5-yl)-2,6-naphthyridin-3-yl)amino)benzenesulfonamide]: the IC50 at CDK6/CCND1 (setting [1]) is over 250 nM; on CDK4/CCND3 (setting [2]), over 250 nM; on CDK2/CCNE1 (setting [5]), under 25 nM; at CDK1/CCNB1 (setting [4]), over 250 nM.

`Cc1c(-c2nccc3cnc(Nc4ccc(S(N)(=O)=O)cc4)cc23)ccc2c1cnn2CC(O)(C(F)(F)F)C(F)(F)F` [Ex 726, 4-((5-(4-methyl-1-(3,3,3-trifluoro-2-hydroxy-2-(trifluoromethyl)propyl)-1H-indazol-5-yl)-2,6-naphthyridin-3-yl)amino)benzenesulfonamide]: the IC50 on CDK6/CCND1 (setting [6]) was 25 to 250 nM; on CDK4/CCND3 (setting [2]), over 250 nM; at CDK2/CCNE1 (setting [5]), under 25 nM; at CDK1/CCNB1 (setting [7]), 25 to 250 nM.

For `Cc1c(-c2nccc3cnc(Nc4ccc(S(=O)(=O)Nc5ncccn5)cc4)cc23)ccc2c1cnn2CC(O)(C(F)(F)F)C(F)(F)F` [Ex 727, 4-((5-(4-methyl-1-(3,3,3-trifluoro-2-hydroxy-2-(trifluoromethyl)propyl)-1H-indazol-5-yl)-2,6-naphthyridin-3-yl)amino)-N-(pyrimidin-2-yl)benzenesulfonamide], the IC50 on CDK6/CCND1 (setting [1]) was over 250 nM; at CDK4/CCND3 (setting [2]) it was over 250 nM; at CDK2/CCNE1 (setting [5]), under 25 nM; at CDK1/CCNB1 (setting [4]) it was over 250 nM.

As for `Cc1c(-c2nccc3cnc(Nc4ccc(S(=O)(=O)Nc5ccccc5)cc4)cc23)ccc2c1cnn2CC(O)(C(F)(F)F)C(F)(F)F` [Ex 728, 4-((5-(4-methyl-1-(3,3,3-trifluoro-2-hydroxy-2-(trifluoromethyl)propyl)-1H-indazol-5-yl)-2,6-naphthyridin-3-yl)amino)-N-phenylbenzenesulfonamide], the IC50 at CDK6/CCND1 (setting [1]) was over 250 nM; at CDK4/CCND3 (setting [2]), over 250 nM; at CDK2/CCNE1 (setting [3]), 25 to 250 nM; on CDK1/CCNB1 (setting [4]) it was over 250 nM.

Turning to `Cc1c(-c2nccc3cnc(Nc4ccc(S(=O)(=O)NCc5ccccc5)cc4)cc23)ccc2c1cnn2CC(O)(C(F)(F)F)C(F)(F)F` [Ex 729, N-benzyl-4-((5-(4-methyl-1-(3,3,3-trifluoro-2-hydroxy-2-(trifluoromethyl)propyl)-1H-indazol-5-yl)-2,6-naphthyridin-3-yl)amino)benzenesulfonamide], the IC50 at CDK6/CCND1 (setting [1]) is over 250 nM; at CDK4/CCND3 (setting [2]), over 250 nM; at CDK2/CCNE1 (setting [3]) it was 25 to 250 nM; at CDK1/CCNB1 (setting [4]), over 250 nM.

As to `Cc1c(-c2nccc3cnc(Nc4ccc(S(=O)(=O)NCc5ccccc5)cc4)cc23)ccc2c1cnn2CC(C)(C)O` [Ex 730, N-benzyl-4-((5-(1-(2-hydroxy-2-methylpropyl)-4-methyl-1H-indazol-5-yl)-2,6-naphthyridin-3-yl)amino)benzenesulfonamide], the IC50 was over 250 nM on CDK6/CCND1 (setting [1]), over 250 nM at CDK4/CCND3 (setting [2]), under 25 nM on CDK2/CCNE1 (setting [5]) and over 250 nM at CDK1/CCNB1 (setting [4]).

Regarding `CCN(c1ncccn1)S(=O)(=O)c1ccc(Nc2cc3c(-c4ccc5c(cnn5CC(O)(C(F)(F)F)C(F)(F)F)c4C)nccc3cn2)cc1` [Ex 731, N-ethyl-4-((5-(4-methyl-1-(3,3,3-trifluoro-2-hydroxy-2-(trifluoromethyl)propyl)-1H-indazol-5-yl)-2,6-naphthyridin-3-yl)amino)-N-(pyrimidin-2-yl)benzenesulfonamide], the IC50 was over 250 nM on CDK6/CCND1 (setting [1]), over 250 nM on CDK4/CCND3 (setting [2]), 25 to 250 nM at CDK2/CCNE1 (setting [3]) and over 250 nM on CDK1/CCNB1 (setting [4]).

Take `Cc1c(-c2nccc3cnc(Nc4ccc(S(=O)(=O)N(C)c5ncccn5)cc4)cc23)ccc2c1cnn2CC(C)(C)O` [Ex 734, 4-((5-(1-(2-hydroxy-2-methylpropyl)-4-methyl-1H-indazol-5-yl)-2,6-naphthyridin-3-yl)amino)-N-methyl-N-(pyrimidin-2-yl)benzenesulfonamide]: the IC50 at CDK6/CCND1 (setting [6]) is 25 to 250 nM; at CDK4/CCND3 (25-250 nM, read-out: CDK4/CCND IC50, 25-250 nM) it was 25 to 250 nM; at CDK2/CCNE1 (setting [5]), under 25 nM; at CDK1/CCNB1 (setting [7]) it was 25 to 250 nM.

`COc1cccc(NS(=O)(=O)c2ccc(Nc3cc4c(-c5ccc6c(cnn6CC(O)(C(F)(F)F)C(F)(F)F)c5C)nccc4cn3)cc2)n1` [Ex 735, N-(6-methoxypyridin-2-yl)-4-((5-(4-methyl-1-(3,3,3-trifluoro-2-hydroxy-2-(trifluoromethyl)propyl)-1H-indazol-5-yl)-2,6-naphthyridin-3-yl)amino)benzenesulfonamide]: the IC50 at CDK6/CCND1 (setting [1]) was over 250 nM; at CDK4/CCND3 (setting [2]), over 250 nM; at CDK2/CCNE1 (setting [3]), 25 to 250 nM; on CDK1/CCNB1 (setting [4]), over 250 nM.

`Cc1cc(C)nc(NS(=O)(=O)c2ccc(Nc3cc4c(-c5ccc6c(cnn6CC(O)(C(F)(F)F)C(F)(F)F)c5C)nccc4cn3)cc2)n1` [Ex 736, N-(4,6-dimethylpyrimidin-2-yl)-4-((5-(4-methyl-1-(3,3,3-trifluoro-2-hydroxy-2-(trifluoromethyl)propyl)-1H-indazol-5-yl)-2,6-naphthyridin-3-yl)amino)benzenesulfonamide]: the IC50 on CDK6/CCND1 (setting [1]) is over 250 nM; on CDK4/CCND3 (setting [2]), over 250 nM; at CDK2/CCNE1 (setting [5]), under 25 nM; at CDK1/CCNB1 (setting [4]), over 250 nM.

Regarding `COc1ccnc(NS(=O)(=O)c2ccc(Nc3cc4c(-c5ccc6c(cnn6CC(O)(C(F)(F)F)C(F)(F)F)c5C)nccc4cn3)cc2)n1` [Ex 737, N-(4-methoxypyrimidin-2-yl)-4-((5-(4-methyl-1-(3,3,3-trifluoro-2-hydroxy-2-(trifluoromethyl)propyl)-1H-indazol-5-yl)-2,6-naphthyridin-3-yl)amino)benzenesulfonamide], the IC50 at CDK6/CCND1 (setting [1]) is over 250 nM; at CDK4/CCND3 (setting [2]), over 250 nM; at CDK2/CCNE1 (setting [5]), under 25 nM; on CDK1/CCNB1 (setting [4]), over 250 nM.

Turning to `Cc1c(-c2nccc3cnc(Nc4ccc(S(=O)(=O)Nc5cccc(N6CCOCC6)c5)cc4)cc23)ccc2c1cnn2CC(O)(C(F)(F)F)C(F)(F)F` [Ex 738, 4-((5-(4-methyl-1-(3,3,3-trifluoro-2-hydroxy-2-(trifluoromethyl)propyl)-1H-indazol-5-yl)-2,6-naphthyridin-3-yl)amino)-N-(3-morpholinophenyl)benzenesulfonamide], the IC50 on CDK6/CCND1 (setting [1]) is over 250 nM; on CDK4/CCND3 (setting [2]), over 250 nM; at CDK2/CCNE1 (setting [3]) it was 25 to 250 nM; at CDK1/CCNB1 (setting [4]), over 250 nM.

Take `COc1cc(NS(=O)(=O)c2ccc(Nc3cc4c(-c5ccc6c(cnn6CC(O)(C(F)(F)F)C(F)(F)F)c5C)nccc4cn3)cc2)cc(OC)c1` [Ex 739, N-(3,5-dimethoxyphenyl)-4-((5-(4-methyl-1-(3,3,3-trifluoro-2-hydroxy-2-(trifluoromethyl)propyl)-1H-indazol-5-yl)-2,6-naphthyridin-3-yl)amino)benzenesulfonamide]: the IC50 at CDK6/CCND1 (setting [1]) was over 250 nM; at CDK4/CCND3 (setting [2]) it was over 250 nM; on CDK2/CCNE1 (setting [3]), 25 to 250 nM; at CDK1/CCNB1 (setting [4]), over 250 nM.

For `Cc1c(-c2nccc3cnc(Nc4ccc(S(=O)(=O)Nc5cc(C(F)(F)F)ccn5)cc4)cc23)ccc2c1cnn2CC(O)(C(F)(F)F)C(F)(F)F` [Ex 740, 4-((5-(4-methyl-1-(3,3,3-trifluoro-2-hydroxy-2-(trifluoromethyl)propyl)-1H-indazol-5-yl)-2,6-naphthyridin-3-yl)amino)-N-(4-(trifluoromethyl)pyridin-2-yl)benzenesulfonamide], the IC50 is over 250 nM at CDK6/CCND1 (setting [1]); over 250 nM on CDK4/CCND3 (setting [2]); over 250 nM at CDK2/CCNE1 (>250 nM, read-out: CDK2/CCNE IC50, >250 nM); over 250 nM at CDK1/CCNB1 (setting [4]).
